GFP fluorescence (kMESF) data for 81 molecules are collected here from PubChem BioAssay AID2743 (NMMLSC, 2010).

“And” between values parts separate entries of the source, which are not always exact repeats. Identical values can stand only once. The source made the active and inactive calls.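 How the source made its calls: active means fitted half-maximal concentration for change in GFP expression of 33 µM or less; inactive means the rest.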

The experiment can be described thus: concentration-dependent AGP1-GFP change, TOR pathway – cell-based, flow cytometry, S. cerevisiae, MLPCN hits, dose response (AID 2743). To be noted: S. cerevisiae AGP1-GFP strain, flow cytometry GFP, 3 h; at 33 µM (top of the series). On the technique in general: A flow cytometer gives signals particle by particle.
For the molecule `O=C1C2C3C=CC(CO)(O3)C2C(=O)N1c1ccccc1-c1ccccc1` (stereo unspecified), the GFP fluorescence (kMESF) is 36.3 kMESF (inactive).

Consider `CCC(=O)Oc1oc(-c2ccccc2)nc1C=Nc1ccc(C)cc1`, for which the GFP fluorescence (kMESF) is 41.9 kMESF (inactive). Turning to `O=c1c2sc(-c3ccccc3)cc2nc2n1CCC2`, the GFP fluorescence (kMESF) is 25 kMESF (inactive).

Turning to `COc1ccc(/C=C/C(=O)NC(=S)NNC(=O)c2cnccn2)cc1`, the GFP fluorescence (kMESF) was 38.3 kMESF (inactive).

As for `Cc1ccc2nc(Cl)c3nnnn3c2c1`, the GFP fluorescence (kMESF) was 33.8 kMESF (inactive). The same measure for `Cc1[nH]n(-c2ccccc2)c(=O)c1C(c1ccccc1[N+](=O)[O-])C(C#N)C#N` (stereo unspecified): 36.6 kMESF (inactive); for `CSc1nnc2c3cc(F)ccc3n(C)c2n1`: 25.3 kMESF (inactive).

With `COC(=O)CCCC1=CC2=CC(=O)C(C)(OC(=O)CCc3ccccc3)C(=O)C2=CO1` (stereo unspecified), the GFP fluorescence (kMESF) was 29.2 kMESF (inactive). Take `Fc1cccc(Nc2ncnc3c2cnn3-c2ccccc2)c1`: the GFP fluorescence (kMESF) was 37 kMESF (inactive). For `O=C(/C=C/c1ccnc2ccccc12)c1cccs1` the value was 45.9 kMESF (inactive). In the case of `O=C(Nc1ccc(N2CCOCC2)cc1)C1CCN(S(=O)(=O)c2ccc3c(c2)OCCO3)CC1`, the GFP fluorescence (kMESF) was 34 kMESF (inactive). Regarding `O=C(NCc1ccc2c(c1)OCO2)c1nc(S(=O)(=O)Cc2ccccc2)ncc1Cl`, the GFP fluorescence (kMESF) was 40.9 kMESF (inactive). As for `COc1ccc(N=Cc2nc(-c3ccccc3)oc2OC(C)=O)cc1`, the GFP fluorescence (kMESF) was 35 kMESF (inactive). For `O=C(/C=C/c1ccccn1)c1ccc(Br)cc1O` the value was 20.4 kMESF (inactive); for `COc1ccc2c(c1)S/C(=C\C(=O)c1ccncc1)N2C`, 17.8 kMESF (inactive); for `N#Cc1nccnc1S(=O)(=O)c1cccs1`, 38.7 kMESF (inactive). For `CC(OC(=O)c1ccco1)C(=O)Nc1nc(-c2ccccc2)cs1` (stereo unspecified) the value was 40.9 kMESF (inactive); for `CC[C@]1(c2ccccc2OC)ON(c2ccccc2C(F)(F)F)C1=O`, 32.6 kMESF (inactive); for `COc1ccc(/C=C/C(=O)C2C(=O)C=C(C)OC2=O)cc1O` (stereo unspecified), 43 kMESF (inactive). For `Cc1ccc(S(=O)(=O)ON2C(=O)c3ccccc3C2=O)c(C)c1` the value was 33 kMESF (inactive); for `COc1ccccc1N=Cc1nc(-c2ccccc2)oc1OC(C)=O`, 35.1 kMESF (inactive); for `Clc1ccc(N=c2ssnc2Cl)cc1`, 39.8 kMESF (inactive). Take `N/C(Cc1ccc(Cl)cc1Cl)=N\OC(=O)c1cccs1`: the GFP fluorescence (kMESF) is 27.9 kMESF (inactive). The same measure for `Oc1c(Br)cc(Br)cc1C=Nc1ccc2[nH]ncc2c1`: 37.5 kMESF (inactive); for `c1ccc(-c2csc(Nc3cccnc3)n2)nc1`: 32.1 kMESF (inactive); for `CCCCCCCCC/C(=N\O)c1ccccn1`: 34.8 kMESF (inactive). In the case of `COc1ccc(C(=O)NC(=S)NNC(=O)c2cnccn2)cc1OC`, the GFP fluorescence (kMESF) was 30.2 kMESF (inactive). As to `CC(C)(C)c1ccc(NC(=O)COC(=O)c2ccc([N+](=O)[O-])s2)cc1`, the GFP fluorescence (kMESF) was 14.7 kMESF (inactive). The same measure for `CCCCC1OC23CCCCC2C(C#N)(C(=N)O3)C1(C#N)C#N` (stereo unspecified): 43.3 kMESF (inactive); for `O=C1C=CC(=O)N1N(c1ccccc1)c1ccccc1`: 37 kMESF (inactive); for `CN(C)C(=O)Oc1ccnc2cc(Cl)ccc12`: 42.3 kMESF (inactive). Consider `CC(C)CC(=O)NC(=S)Nc1nc(-c2ccccc2)cs1`, for which the GFP fluorescence (kMESF) was 38.8 kMESF (inactive). On to `CCN(CC(=O)NC(C)(C)C)C(=O)COc1c(Cl)cc(Cl)c2ccc(C)nc12`, for which the GFP fluorescence (kMESF) is 35.5 kMESF (inactive). For `Nc1nc2ncc(CNc3ccc(C(=O)N[C@@H](CCC(=O)O)C(=O)O)cc3)nc2c(=O)[nH]1` the value was 29.1 kMESF (inactive).

Consider `Cc1cc(C)c(S(=O)(=O)ON2C(=O)c3ccccc3C2=O)cc1C`, for which the GFP fluorescence (kMESF) was 42.8 kMESF (inactive). With `COc1ccc(N=Cc2nc(-c3ccccc3)oc2OC(=O)c2ccccc2)cc1`, the GFP fluorescence (kMESF) was 39.5 kMESF (inactive). Take `O=C(/C=C/Sc1ncn[nH]1)c1ccc(Cl)cc1`: the GFP fluorescence (kMESF) was 38 kMESF (inactive). The same measure for `Cc1ccc(NC(=O)CCc2ccccc2)cc1S(=O)(=O)N1CCOCC1`: 40.4 kMESF (inactive). Regarding `Cc1cc(S(=O)(=O)ON2C(=O)c3ccccc3C2=O)ccc1F`, the GFP fluorescence (kMESF) was 43.2 kMESF (inactive). On to `CSC1=NS(=O)(=O)c2c(C)nn(C)c2S1`, for which the GFP fluorescence (kMESF) is 45.6 kMESF (inactive). For `CCN1/C(=C/c2ccc3cc(C)ccc3[n+]2CC)Sc2ccc3sccc3c21` the value was 43.3 kMESF (inactive); for `CC(=O)Oc1ccc(N2C(=O)C3C4C=CC(CO)(O4)C3C2=O)cc1` (stereo unspecified), 41.3 kMESF (inactive). Take `CN(C)/C=C/C(=O)c1ccc(-c2ccc(Cl)cc2Cl)o1`: the GFP fluorescence (kMESF) is 27.8 kMESF (inactive). `CCC(=O)Nc1ccc(NC(=O)c2cc3ccccc3o2)cc1`: the GFP fluorescence (kMESF) was 43.4 kMESF (inactive).

For `CCc1ccc(OCC(=O)NNC(=S)NC(=O)C2CC2)c(Br)c1`, the GFP fluorescence (kMESF) was 45.2 kMESF (inactive). For `CC(C)C(=O)NC(c1cccs1)c1cc([N+](=O)[O-])c2cccnc2c1O` (stereo unspecified) the value was 38.9 kMESF (inactive); for `O=C(Oc1c(Cl)cc(Cl)c2cccnc12)c1cccs1`, 25.9 kMESF (inactive).

Regarding `CCOc1ccccc1/C=c1\sc2ncnn2c1=O`, the GFP fluorescence (kMESF) is 39.5 kMESF (inactive). The same measure for `C[C@@H]1C[C@@H]([C@H](O)CC2CC(=O)NC(=O)C2)C(=O)[C@@H](C)C1`: 26.8 kMESF (inactive); for `O=c1c2cc(Cl)ccc2nc(-c2ccc([N+](=O)[O-])cc2)n1O`: 23 kMESF (inactive); for `O=C(Nc1ccccc1)ON=C1CCCC1`: 21.6 kMESF (inactive). For `COc1ccc(NC2=C(Cl)C(=O)N(CCc3ccccc3)C2=O)c(OC)c1` the value was 35.3 kMESF (inactive). The same measure for `O=[N+]([O-])c1ccc(-c2cn3nc(-c4ccccc4)c(-c4ccccc4)nc3n2)cc1`: 39.6 kMESF (inactive). For the molecule `Cc1ccc(C2=NN(S(C)(=O)=O)C(c3ccc4c(c3)OCO4)C2)cc1` (stereo unspecified), the GFP fluorescence (kMESF) is 44.1 kMESF (inactive).

`O=C(NC(=S)NNC(=O)c1cnccn1)c1ccc(F)cc1`: the GFP fluorescence (kMESF) is 37.3 kMESF (inactive). The same measure for `O=C(COc1ccccc1)NNC(=S)NC(=O)c1ccc(Cl)cc1Cl`: 29.9 kMESF (inactive). The same measure for `Cc1ccc(/C=C2\SC(=S)N(Cc3ccccc3)C2=O)o1`: 38.4 kMESF (inactive); for `C#CCOCCOCCOCCNc1nc(N2CCN(C(=O)CCCCCCCCCCNC(=O)[C@H](CCCCN)n3cc(CCO)nn3)CC2)nc(N2CCN(C(=O)CCCCCCCCCCNC(=O)[C@H](CCCCN)n3cc(C[C@@H](C)CC)nn3)CC2)n1`: 51.4 kMESF (inactive); for `Cc1ccc(-c2nc(N)c3c(-c4ccc(C)cc4)nn(C(C)(C)C)c3n2)cc1`: 38.4 kMESF (inactive). For `CC1=C/C(=N\OS(=O)(=O)c2ccccc2)C(C)=CC1=O` the value was 34.7 kMESF (inactive); for `CC(=O)N(C1=C(Cl)C(=O)c2ccccc2C1=O)C1CCCCC1`, -0.34 kMESF (inactive); for `O=[N+]([O-])c1ccc(S(=O)(=O)c2ccccc2)nc1`, 44.6 kMESF (inactive).

Turning to `CCOc1cc(C=C2C(=O)c3ccccc3C2=O)ccc1OCC(=O)Nc1ccc(C)cc1`, the GFP fluorescence (kMESF) is 36.1 kMESF (inactive).

Consider `Cn1ncc2c(O/N=C(\N)c3ccc(C(C)(C)C)cc3)ncnc21`, for which the GFP fluorescence (kMESF) is 24.7 kMESF (inactive). For `CC(Oc1ccc2ccccc2c1)C(=O)NNC(=S)NC(=O)c1ccco1` (stereo unspecified) the value was 32.1 kMESF (inactive); for `O=C(O)c1ccccc1SC1CC(=O)N(c2ccc3c(c2)OCO3)C1=O` (stereo unspecified), 47.9 kMESF (inactive). The same measure for `CN(Cc1cnc2nc(N)nc(N)c2n1)c1ccc(C(=O)N[C@@H](CCC(=O)O)C(=O)O)cc1`: 45.5 kMESF (inactive) and 51.9 kMESF (inactive). Consider `C=CCOc1ccc(C(=O)/C=C2/C(=O)Nc3ccccc32)cc1`, for which the GFP fluorescence (kMESF) is 46.5 kMESF (inactive).

For `N=C1/C(=C\c2coc3ccccc3c2=O)C(=O)N=C2SC(c3ccncc3)=NN12`, the GFP fluorescence (kMESF) was 44.7 kMESF (inactive). The same measure for `On1ccccc1=S`: 35.2 kMESF (inactive). The same measure for `C/C(=N\NC(=O)c1cccc(Br)c1)c1ccccn1`: 42.1 kMESF (inactive); for `Cc1cc(C)c2c(c1)/C(=C/C(=O)c1ccc(Br)s1)C(=O)N2`: 42.9 kMESF (inactive); for `O=C1C=C(c2ccccc2)C(=O)N1Nc1ccccc1`: 40.8 kMESF (inactive). Take `COc1ccc(NC(=O)/C(Cl)=C(/Cl)S(=O)Cc2ccccc2)cn1` (stereo unspecified): the GFP fluorescence (kMESF) is 38.3 kMESF (inactive).

Consider `CCCCC(=O)NC(=S)NNC(=O)CCc1ccccc1`, for which the GFP fluorescence (kMESF) is 28.1 kMESF (inactive). The same measure for `COc1ccc2c(c1)c(/C=C/c1cc[n+](C)cc1)cn2C`: 46.7 kMESF (inactive); for `COc1cc(NC(=O)c2ccc(C)cc2)ccc1NC(=O)c1cc2ccccc2o1`: 43.8 kMESF (inactive); for `O=C(Oc1ccnc2cc(Cl)ccc12)N1CCOCC1`: 35.7 kMESF (inactive). The same measure for `Cc1c(NC2=C(Cl)C(=O)N(c3ccccc3)C2=O)c(=O)n(-c2ccccc2)n1C`: 41.3 kMESF (inactive); for `Cc1cccc(N=C2NC(=O)/C(=C/C=C/c3ccco3)S2)c1C`: 23.3 kMESF (inactive). The same measure for `COc1ccc(-c2cc3nc4n(c(=O)c3s2)CCC4)cc1`: 23.3 kMESF (inactive).
